According to patent US20050079159A1, “In vivo bioreactors” (Massachusetts Instiute of Technology, priority 2001, published 2005):

System: periosteal explants
Experiment: In vitro periosteal chondrogenesis, organ culture model in alginate gel suspension
Format: cell-based
Details: 10 ng/ml; for Chondrogenesis (H & E; Safranin-O): first two weeks
Description: A further in vitro study of periosteal chondrogenesis has been performed to evaluate an organ culture model using an alginate gel suspension. Briefly, periosteal explants of approximate dimensions 3×3 mm were cultured in an alginate gel suspension and supplemented with either TGF-β1, b-FGF, a combination of the two, or in the absence of growth factors. b-FGF and TGF-β1 were administered at a concentration of 10 ng/ml every two days at each media change for the first week and first two weeks of in vitro culture respectively.
Additionally the cultures were supplemented daily with 50 μg/ml ascorbic acid for the first four weeks of in vitro culture. Results from histological analysis (H & E; and Safranin-O staining) of the explants performed at 1, 3, 6 and 8 week timepoints, were similar to those from the organ culture model utilizing the agarose gel (data not shown). Namely, after a period of 1 week in vitro culture, none of the explants stained positive for glycosaminoglycans using Safranin-O staining. Significant neo-chondrogenesis from the periosteum was not observed for explants cultured in the absence of added growth factors or supplemented with b-FGF alone over the period of 8 weeks. […] Safranin-O stains of typical periosteal explants after 1, 3, 6 and 8 weeks in vitro culture when b-FGF and TGF-β1 were administered for the first week and first two weeks of in vitro culture were observed.

Substance | Significant neo-chondrogenesis from the periosteum (H & E; Safranin-O) (over the period of 8 weeks in vitro culture) | Chondrogenesis (H & E; Safranin-O) (after 3 weeks in vitro culture) | Chondrogenesis (H & E; Safranin-O) (after 8 weeks in vitro culture)
b-FGF: basic fibroblast growth factor | not observed | – | –
TGF-β1: transforming growth factor | – | apparent | most pronounced
